Experimental data reported in patent US10538555B2, “Macrocyclic inhibitors of the PD-1/PD-L1 and CD80(B7-1)/PD-L1 protein/protein interactions” (BRISTOL-MYERS SQUIBB COMPANY, priority 2014, dated 2020).
Where two headings read alike, the source gives them in different places. Where a SMILES comes first, the peptide text is derived from it. Bridges are numbered along the chain shown (N, C = ends). [ ]: non-standard residue; d: D form. Trp(βS-Me) = C[C@@H](c1c[nH]c2ccccc12)[C@H](N)C(=O)O; Phe(3,4,5-F3) = N[C@@H](Cc1cc(F)c(F)c(F)c1)C(=O)O; NMePhe(4-F) = CN[C@@H](Cc1ccc(F)cc1)C(=O)O; Hyp = O=C(O)[C@@H]1C[C@@H](O)CN1; NMeF = CN[C@@H](Cc1ccccc1)C(=O)O; dHyp = O=C(O)[C@H]1C[C@H](O)CN1; NMeNle = CCCC[C@H](NC)C(=O)O; dPip = O=C(O)[C@H]1CCCCN1; NMeA = CN[C@@H](C)C(=O)O; Dab = NCC[C@H](N)C(=O)O

Biological target: T1, Human PD-L1/PD-1 (Homo sapiens, UniProt Q9NZQ7)
T1 construct: TVMV protease cleavage site (C); made in house; host or cells: HEK293T cells
Experiment: HTRF Human PD-L1/PD-1 binding assay (PD-1-Ig/PD-L1-His)
Conditions: PD-L1-His 10 nM, PD-1-Ig 20 nM
Method in brief: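 Soluble HEK293T-expressed proteins: hPD-L1-His 10 nM, hPD-1-Ig 20 nM final. Cpd + PD-L1 15 min, + PD-1 15 min, + Eu anti-Ig 1 nM/APC anti-His 20 nM 30 min. Buffer dPBS, 0.1% BSA, 0.05% Tween-20. TR-FRET 665/620.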

[1] = class symbol, read-out: HTRF Human PD-L1/PD-1 Binding Assay IC50 Range

T1 sequence (Q9NZQ7 with tags, fused parts or gaps): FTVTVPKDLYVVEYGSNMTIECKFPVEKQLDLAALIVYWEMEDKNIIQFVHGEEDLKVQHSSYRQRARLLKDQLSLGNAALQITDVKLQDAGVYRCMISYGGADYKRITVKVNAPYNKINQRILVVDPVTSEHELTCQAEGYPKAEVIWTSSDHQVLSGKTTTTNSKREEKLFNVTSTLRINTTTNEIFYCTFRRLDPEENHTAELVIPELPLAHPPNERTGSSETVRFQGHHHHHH

| SMILES | IC50 (read-out: HTRF Human PD-L1/PD-1 Binding Assay IC50) [nM] | IC50 [1] [nM] |
| --- | --- | --- |
| CC(C)C[C@@H]1NC(=O)[C@H](Cc2ccc(O)cc2)NC(=O)[C@H](Cc2c[nH]c3ccccc23)NC(=O)[C@H]2CCCCN2C(=O)[C@H](Cc2ccc(O)cc2)NC(=O)[C@H](Cc2ccccc2)N(C)C(=O)[C@H](C(C)C)NC(=O)[C@H](CC(=O)O)NC(=O)[C@H]2CCCN2C(=O)[C@H](C)N(C)C(=O)[C@H](Cc2ccc(F)cc2)N(C)C(=O)[C@H](Cc2ccccc2)NC(=O)CSC[C@@H](C(=O)NCC(N)=O)NC1=O [Example 10543] ({CH2CO}-F[NMePhe(4-F)][NMeA][dP]DV[NMeF]Y[dPip]WYLCG-NH2; thioether N-13) | 10 | – |
| CCCC[C@H]1C(=O)N[C@@H](CC(=O)O)C(=O)N2CCC[C@H]2C(=O)N[C@@H](Cc2c[nH]cn2)C(=O)N[C@@H](CCC(N)=O)C(=O)N2C[C@H](O)C[C@H]2C(=O)N[C@@H]([C@@H](C)c2c[nH]c3ccccc23)C(=O)N[C@@H](CO)C(=O)N[C@@H](Cc2c[nH]c3ccccc23)C(=O)N(C)[C@@H](C)C(=O)N(C)[C@@H](C)C(=O)N[C@@H](CCC(=O)O)C(=O)N[C@H](C(=O)NCC(N)=O)CSCC(=O)N[C@@H](Cc2ccc(O)cc2)C(=O)N1C [Example 10544] ({CH2CO}-Y[NMeNle]DPHQ[Hyp][Trp(βS-Me)]SW[NMeA][NMeA]ECG-NH2; thioether N-14) | – | 1000 to 10000 |
| CCCC[C@H]1C(=O)N2C[C@@H](O)C[C@@H]2C(=O)N[C@@H](CC(=O)O)C(=O)N[C@@H](C(C)C)C(=O)N(C)[C@@H](Cc2ccccc2)C(=O)N[C@@H](Cc2ccc(O)cc2)C(=O)N2CCC[C@@H]2C(=O)N[C@@H]([C@@H](C)c2c[nH]c3ccccc23)C(=O)N[C@@H](Cc2ccc(O)cc2)C(=O)N[C@@H](CC(C)C)C(=O)N[C@H](C(=O)NCC(N)=O)CSCC(=O)N[C@@H](Cc2cc(F)c(F)c(F)c2)C(=O)N(C)[C@@H](Cc2ccccc2)C(=O)N1C [Example 10551] ({CH2CO}-[Phe(3,4,5-F3)][NMeF][NMeNle][dHyp]DV[NMeF]Y[dP][Trp(βS-Me)]YLCG-NH2; thioether N-13) | – | 1 to 9.9 |
| CCCC[C@H]1C(=O)N(C)[C@@H](CCCC)C(=O)N[C@@H](CCC(=O)O)C(=O)N[C@H](C(=O)NCC(N)=O)CSCC(=O)N[C@@H](Cc2ccc(O)cc2)C(=O)N(C)[C@@H](C)C(=O)N[C@@H](CC(=O)O)C(=O)N2CCC[C@H]2C(=O)N[C@@H](Cc2c[nH]cn2)C(=O)N[C@@H](CCC(N)=O)C(=O)N2C[C@H](O)C[C@H]2C(=O)N[C@@H]([C@@H](C)c2c[nH]c3ccccc23)C(=O)N[C@@H](CO)C(=O)N[C@@H](Cc2c[nH]c3ccccc23)C(=O)N1C [Example 10552] ({CH2CO}-Y[NMeA]DPHQ[Hyp][Trp(βS-Me)]SW[NMeNle][NMeNle]ECG-NH2; thioether N-14) | – | 1 to 9.9 |
| CCCC[C@H]1C(=O)N(C)[C@@H](CCCC)C(=O)N[C@@H](C)C(=O)N[C@H](C(=O)NCC(N)=O)CSCC(=O)N[C@@H](Cc2ccc(O)cc2)C(=O)N(C)[C@@H](C)C(=O)N[C@@H](CC(=O)O)C(=O)N2CCC[C@H]2C(=O)N[C@@H](Cc2c[nH]cn2)C(=O)N[C@@H](CCC(N)=O)C(=O)N2C[C@H](O)C[C@H]2C(=O)N[C@@H]([C@@H](C)c2c[nH]c3ccccc23)C(=O)N[C@@H](CO)C(=O)N[C@@H](Cc2c[nH]c3ccccc23)C(=O)N1C [Example 10553] ({CH2CO}-Y[NMeA]DPHQ[Hyp][Trp(βS-Me)]SW[NMeNle][NMeNle]ACG-NH2; thioether N-14) | – | 1 to 9.9 |
| CCCC[C@H]1C(=O)N(C)[C@@H](CCCC)C(=O)N[C@@H](CC(C)C)C(=O)N[C@H](C(=O)NCC(N)=O)CSCC(=O)N[C@@H](Cc2ccc(O)cc2)C(=O)N(C)[C@@H](C)C(=O)N[C@@H](CC(N)=O)C(=O)N2CCC[C@H]2C(=O)N[C@@H](Cc2c[nH]cn2)C(=O)N[C@@H](CCC(N)=O)C(=O)N2C[C@H](O)C[C@H]2C(=O)N[C@@H]([C@@H](C)c2c[nH]c3ccccc23)C(=O)N[C@@H](CO)C(=O)N[C@@H](Cc2c[nH]c3ccccc23)C(=O)N1C [Example 10554] ({CH2CO}-Y[NMeA]NPHQ[Hyp][Trp(βS-Me)]SW[NMeNle][NMeNle]LCG-NH2; thioether N-14) | – | 1 to 9.9 |
| CCCC[C@H]1C(=O)N(C)[C@@H](CCCC)C(=O)N[C@@H](CC(C)C)C(=O)N[C@H](C(=O)NCC(N)=O)CSCC(=O)N[C@@H](Cc2ccc(O)cc2)C(=O)N(C)[C@@H](C)C(=O)N[C@@H](CC(N)=O)C(=O)N2CCC[C@H]2C(=O)N[C@@H](Cc2c[nH]cn2)C(=O)N[C@@H](CCC(=O)O)C(=O)N2C[C@H](O)C[C@H]2C(=O)N[C@@H]([C@@H](C)c2c[nH]c3ccccc23)C(=O)N[C@@H](CCN)C(=O)N[C@@H](Cc2c[nH]c3ccccc23)C(=O)N1C [Example 10555] ({CH2CO}-Y[NMeA]NPHE[Hyp][Trp(βS-Me)][Dab]W[NMeNle][NMeNle]LCG-NH2; thioether N-14) | – | 1 to 9.9 |
| CCCC[C@H]1C(=O)N2C[C@@H](O)C[C@@H]2C(=O)N[C@@H](CC(=O)O)C(=O)N[C@@H](C(C)C)C(=O)N(C)[C@@H](Cc2ccccc2)C(=O)N[C@@H](CCC(=O)O)C(=O)N2CCCC[C@@H]2C(=O)N[C@@H](Cc2c[nH]c3ccccc23)C(=O)N[C@@H](Cc2ccc(O)cc2)C(=O)N[C@@H](CC(C)C)C(=O)N[C@H](C(=O)NCC(N)=O)CSCC(=O)N[C@@H](Cc2cc(F)c(F)c(F)c2)C(=O)N(C)[C@@H](Cc2ccc(F)cc2)C(=O)N1C [Example 10556] ({CH2CO}-[Phe(3,4,5-F3)][NMePhe(4-F)][NMeNle][dHyp]DV[NMeF]E[dPip]WYLCG-NH2; thioether N-13) | – | 1 to 9.9 |
| CCCC[C@H]1C(=O)N2C[C@@H](O)C[C@@H]2C(=O)N[C@@H](CC(=O)O)C(=O)N[C@@H](C(C)C)C(=O)N(C)[C@@H](Cc2ccccc2)C(=O)N[C@@H](CCC(=O)O)C(=O)N2CCCC[C@@H]2C(=O)N[C@@H](Cc2c[nH]c3ccccc23)C(=O)N[C@@H](Cc2ccc(O)cc2)C(=O)N[C@@H](CO)C(=O)N[C@H](C(=O)NCC(N)=O)CSCC(=O)N[C@@H](Cc2cc(F)c(F)c(F)c2)C(=O)N(C)[C@@H](Cc2ccc(F)cc2)C(=O)N1C [Example 10557] ({CH2CO}-[Phe(3,4,5-F3)][NMePhe(4-F)][NMeNle][dHyp]DV[NMeF]E[dPip]WYSCG-NH2; thioether N-13) | – | 1 to 9.9 |
| CCCC[C@H]1C(=O)N2C[C@@H](O)C[C@@H]2C(=O)N[C@@H](CC(=O)O)C(=O)N[C@@H](C(C)C)C(=O)N(C)[C@@H](Cc2ccccc2)C(=O)N[C@@H](CCC(=O)O)C(=O)N2CCCC[C@@H]2C(=O)N[C@@H](Cc2c[nH]c3ccccc23)C(=O)N[C@@H](Cc2ccc(O)cc2)C(=O)N[C@@H](CC(N)=O)C(=O)N[C@H](C(=O)NCC(N)=O)CSCC(=O)N[C@@H](Cc2cc(F)c(F)c(F)c2)C(=O)N(C)[C@@H](Cc2ccc(F)cc2)C(=O)N1C [Example 10558] ({CH2CO}-[Phe(3,4,5-F3)][NMePhe(4-F)][NMeNle][dHyp]DV[NMeF]E[dPip]WYNCG-NH2; thioether N-13) | – | 1 to 9.9 |
| CCCC[C@H]1C(=O)N2C[C@@H](O)C[C@@H]2C(=O)N[C@@H](CC(=O)O)C(=O)N[C@@H](C(C)C)C(=O)N(C)[C@@H](Cc2ccccc2)C(=O)N[C@@H](CCC(=O)O)C(=O)N2CCCC[C@@H]2C(=O)N[C@@H](Cc2c[nH]c3ccccc23)C(=O)N[C@@H](Cc2ccc(O)cc2)C(=O)N[C@@H](CCC(N)=O)C(=O)N[C@H](C(=O)NCC(N)=O)CSCC(=O)N[C@@H](Cc2cc(F)c(F)c(F)c2)C(=O)N(C)[C@@H](Cc2ccc(F)cc2)C(=O)N1C [Example 10559] ({CH2CO}-[Phe(3,4,5-F3)][NMePhe(4-F)][NMeNle][dHyp]DV[NMeF]E[dPip]WYQCG-NH2; thioether N-13) | – | 1 to 9.9 |
| CCCC[C@H]1C(=O)N2C[C@@H](O)C[C@@H]2C(=O)N[C@@H](CC(=O)O)C(=O)N[C@@H](C(C)C)C(=O)N(C)[C@@H](Cc2ccccc2)C(=O)N[C@@H](CCC(=O)O)C(=O)N2CCCC[C@@H]2C(=O)N[C@@H](Cc2c[nH]c3ccccc23)C(=O)N[C@@H](Cc2ccc(O)cc2)C(=O)N[C@@H](CCCCN)C(=O)N[C@H](C(=O)NCC(N)=O)CSCC(=O)N[C@@H](Cc2cc(F)c(F)c(F)c2)C(=O)N(C)[C@@H](Cc2ccc(F)cc2)C(=O)N1C [Example 10560] ({CH2CO}-[Phe(3,4,5-F3)][NMePhe(4-F)][NMeNle][dHyp]DV[NMeF]E[dPip]WYKCG-NH2; thioether N-13) | – | 1 to 9.9 |
| CCCC[C@H]1C(=O)N2CCC[C@@H]2C(=O)N[C@@H](CC(=O)O)C(=O)N[C@@H](C(C)C)C(=O)N(C)[C@@H](Cc2ccccc2)C(=O)N[C@@H](CCC(=O)O)C(=O)N2CCCC[C@@H]2C(=O)N[C@@H](Cc2c[nH]c3ccccc23)C(=O)N[C@@H](Cc2ccc(O)cc2)C(=O)N[C@@H](CC(C)C)C(=O)N[C@H](C(=O)NCC(N)=O)CSCC(=O)N[C@@H](Cc2cc(F)c(F)c(F)c2)C(=O)N(C)[C@@H](Cc2ccc(F)cc2)C(=O)N1C [Example 10561] ({CH2CO}-[Phe(3,4,5-F3)][NMePhe(4-F)][NMeNle][dP]DV[NMeF]E[dPip]WYLCG-NH2; thioether N-13) | – | 1 to 9.9 |
| CCCC[C@H]1C(=O)N2CCC[C@@H]2C(=O)N[C@@H](CC(=O)O)C(=O)N[C@@H](C(C)C)C(=O)N(C)[C@@H](Cc2ccccc2)C(=O)N[C@@H](CCC(=O)O)C(=O)N2CCCC[C@@H]2C(=O)N[C@@H](Cc2c[nH]c3ccccc23)C(=O)N[C@@H](Cc2ccc(O)cc2)C(=O)N[C@@H](CC(N)=O)C(=O)N[C@H](C(=O)NCC(N)=O)CSCC(=O)N[C@@H](Cc2cc(F)c(F)c(F)c2)C(=O)N(C)[C@@H](Cc2ccc(F)cc2)C(=O)N1C [Example 10562] ({CH2CO}-[Phe(3,4,5-F3)][NMePhe(4-F)][NMeNle][dP]DV[NMeF]E[dPip]WYNCG-NH2; thioether N-13) | – | 1 to 9.9 |
